# Key:
# Assay type in all cases: cell-based
# E. coli DH5α = experiment: Antibacterial activity: MIC and growth curve against E. coli DH5α in 96-well plate; details: minimal inhibitory concentration against E. coli DH5α; 96-well plate, 5×10^5 CFU/mL, 37° C., judged after 8 h
# Summary of the method: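 MIC taken as lowest protein level with no bacterial growth, tracked by A600 every 30 min during 37 °C, 175 rpm culture. Two-fold protein series 50-12.5 μg/mL final, triplicate wells, against 5×10^5 CFU/mL of LB-washed mid-log cells.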
# E. coli BL21 = experiment: MIC against Gram-negative bacteria: E. coli BL21; details: 5×10^5 CFU/mL
# Summary of the method: (§1)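 Two-fold serial dilutions of each purified human EGF domain protein, three replicate wells per level, were combined with bacteria at a final 5×10^5 CFU/mL in LB. Cultures were shaken at 175 rpm, 37° C. The MIC was taken as the minimum concentration preventing growth.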
# Pseudomonas aeruginosa = experiment: MIC against Gram-negative bacteria: Pseudomonas aeruginosa; details: 5×10^5 CFU/mL
# Summary of the method: as §1
# Klebsiella pneumonia = experiment: MIC against Gram-negative bacteria: Klebsiella pneumonia; details: 5×10^5 CFU/mL
# Summary of the method: as §1
# Enterobacter cloacae = experiment: MIC against Gram-negative bacteria: Enterobacter cloacae; details: 5×10^5 CFU/mL
# Summary of the method: as §1
# Aeromonas hydrophila = experiment: MIC against Gram-negative bacteria: Aeromonas hydrophila; details: 5×10^5 CFU/mL
# Summary of the method: as §1
# Citrobacter diversus = experiment: MIC against Gram-negative bacteria: Citrobacter diversus; details: 5×10^5 CFU/mL
# Summary of the method: as §1
# Moraxella catarrhalis = experiment: MIC against Gram-negative bacteria: Moraxella catarrhalis; details: 5×10^5 CFU/mL
# Summary of the method: as §1
# Proteus mirabilis = experiment: MIC against Gram-negative bacteria: Proteus mirabilis; details: 5×10^5 CFU/mL
# Summary of the method: as §1
# Proteus vulgaris = experiment: MIC against Gram-negative bacteria: Proteus vulgaris; details: 5×10^5 CFU/mL
# Summary of the method: as §1
# Serratia marcescens = experiment: MIC against Gram-negative bacteria: Serratia marcescens; details: 5×10^5 CFU/mL
# Summary of the method: as §1
# [1] = E. coli BL21, 96-well plate, 37° C., 10 h
# [2] = Pseudomonas aeruginosa, 96-well plate, 37° C., 10 h
# [3] = Klebsiella pneumonia, 96-well plate, 37° C., 10 h
# [4] = Enterobacter cloacae, 96-well plate, 37° C., 10 h
# [5] = Aeromonas hydrophila, 96-well plate, 37° C., 10 h
# [6] = Citrobacter diversus, 96-well plate, 37° C., 10 h
# [7] = Moraxella catarrhalis, 96-well plate, 37° C., 10 h
# [8] = Proteus mirabilis, 96-well plate, 37° C., 10 h
# [9] = Proteus vulgaris, 96-well plate, 37° C., 10 h
# [10] = Serratia marcescens, 96-well plate, 37° C., 10 h
# [11] = 10 h cultivation at 37° C., two-fold serial dilution
substance,measurement,setting,value
PRT85 (KLHFCDSGPCKNSGFCSERWGSFSCDCPVGFGGKDCQ; listed as Homo sapiens),MIC,E. coli DH5α,12.5 mg/L
same,MIC (μg/mL) E. coli BL21,E. coli BL21; [1],12.5 µg/mL
same,MIC (μg/mL) P. aeruginosa,Pseudomonas aeruginosa; [2],12.5 µg/mL
same,MIC (μg/mL) K. pneumonia,Klebsiella pneumonia; [3],12.5 µg/mL
same,MIC (μg/mL) E. cloacae,Enterobacter cloacae; [4],25 µg/mL
same,MIC (μg/mL) A. hydrophila,Aeromonas hydrophila; [5],12.5 µg/mL
same,MIC (μg/mL) C. diversus,Citrobacter diversus; [6],25 µg/mL
same,MIC (μg/mL) M. catarrhalis,Moraxella catarrhalis; [7],50 µg/mL
same,MIC (μg/mL) P. mirabilis,Proteus mirabilis; [8],50 µg/mL
same,MIC (μg/mL) P. vulgaris,Proteus vulgaris; [9],12.5 µg/mL
same,MIC (μg/mL) S. marcescens,Serratia marcescens; [10],50 µg/mL
PRT1215 (SNDPCVEKPCPGDMQCVSYEASRRPFLCQCPPGKLGECS; listed as Homo sapiens),MIC,E. coli DH5α,25 mg/L
same,MIC against E. coli BL21,E. coli BL21; [1],50 mg/L
same,MIC against P. aeruginosa,Pseudomonas aeruginosa; [2],12.5 mg/L
same,MIC against K. pneumonia,Klebsiella pneumonia; [3],25 mg/L
same,MIC against E. cloacae,Enterobacter cloacae; [4],50 mg/L
same,MIC against A. hydrophila,Aeromonas hydrophila; [5],12.5 mg/L
same,MIC against C. diversus,Citrobacter diversus; [6],25 mg/L
same,MIC against M. catarrhalis,Moraxella catarrhalis; [7],50 mg/L
same,MIC against P. mirabilis,Proteus mirabilis; [8],25 mg/L
same,MIC against P. vulgaris,Proteus vulgaris; [9],12.5 mg/L
same,MIC against S. marcescens,Serratia marcescens; [10],25 mg/L
PRT1131 (RMPGCQHGTCHQPWQCICHSGWAGKFCD; listed as Homo sapiens),MIC,E. coli DH5α,50 mg/L
same,MIC E. coli BL21,E. coli BL21; [11],12.5 mg/L
same,MIC P. aeruginosa,Pseudomonas aeruginosa; [11],50 mg/L
same,MIC K. pneumonia,Klebsiella pneumonia; [11],12.5 mg/L
same,MIC E. cloacae,Enterobacter cloacae; [11],50 mg/L
same,MIC A. hydrophila,Aeromonas hydrophila; [11],25 mg/L
same,MIC C. diversus,Citrobacter diversus; [11],12.5 mg/L
same,MIC M. catarrhalis,Moraxella catarrhalis; [11],50 mg/L
same,MIC P. mirabilis,Proteus mirabilis; [11],12.5 mg/L
same,MIC P. vulgaris,Proteus vulgaris; [11],50 mg/L
same,MIC S. marcescens,Serratia marcescens; [11],12.5 mg/L
PRT838 (GLQECSAYCGSHGTCASPLGPCRCEPGFLGRACD; listed as Homo sapiens),MIC,E. coli DH5α,50 mg/L
same,MIC (μg/mL) E. coli BL21,"E. coli BL21; E. coli BL21, 10 h cultivation at 37° C.",12.5 µg/mL
same,MIC (μg/mL) P. aeruginosa,"Pseudomonas aeruginosa; P. aeruginosa, 10 h cultivation at 37° C.",50 µg/mL
same,MIC (μg/mL) K. pneumonia,"Klebsiella pneumonia; K. pneumonia, 10 h cultivation at 37° C.",12.5 µg/mL
same,MIC (μg/mL) E. cloacae,"Enterobacter cloacae; E. cloacae, 10 h cultivation at 37° C.",25 µg/mL
same,MIC (μg/mL) A. hydrophila,"Aeromonas hydrophila; A. hydrophila, 10 h cultivation at 37° C.",50 µg/mL
same,MIC (μg/mL) C. diversus,"Citrobacter diversus; C. diversus, 10 h cultivation at 37° C.",25 µg/mL
same,MIC (μg/mL) M. catarrhalis,"Moraxella catarrhalis; M. catarrhalis, 10 h cultivation at 37° C.",12.5 µg/mL
same,MIC (μg/mL) P. mirabilis,"Proteus mirabilis; P. mirabilis, 10 h cultivation at 37° C.",25 µg/mL
same,MIC (μg/mL) P. vulgaris,"Proteus vulgaris; P. vulgaris, 10 h cultivation at 37° C.",12.5 µg/mL
same,MIC (μg/mL) S. marcescens,"Serratia marcescens; S. marcescens, 10 h cultivation at 37° C.",25 µg/mL
PRT706 (EVNHCSNYCQNGGTCVPSVLGRPTCSCALGFTGPNCG; listed as Homo sapiens),MIC,E. coli DH5α,25 mg/L
same,MIC E. coli BL21,"E. coli BL21; 96-well plate, 37° C., 10 h",50 mg/L
same,MIC P. aeruginosa,"Pseudomonas aeruginosa; 96-well plate, 37° C., 10 h",12.5 mg/L
same,MIC K. pneumonia,"Klebsiella pneumonia; 96-well plate, 37° C., 10 h",12.5 mg/L
same,MIC E. cloacae,"Enterobacter cloacae; 96-well plate, 37° C., 10 h",25 mg/L
same,MIC A. hydrophila,"Aeromonas hydrophila; 96-well plate, 37° C., 10 h",50 mg/L
same,MIC C. diversus,"Citrobacter diversus; 96-well plate, 37° C., 10 h",12.5 mg/L
same,MIC M. catarrhalis,"Moraxella catarrhalis; 96-well plate, 37° C., 10 h",50 mg/L
same,MIC P. mirabilis,"Proteus mirabilis; 96-well plate, 37° C., 10 h",12.5 mg/L
same,MIC P. vulgaris,"Proteus vulgaris; 96-well plate, 37° C., 10 h",50 mg/L
same,MIC S. marcescens,"Serratia marcescens; 96-well plate, 37° C., 10 h",12.5 mg/L
PRT19 (CSCDPQGAVRDDCEQMTGLCSCKPGVAGPKCGQCPDGRALGPAGCEA; listed as Homo sapiens),MIC,E. coli DH5α,25 mg/L
same,MIC (μg/mL) E. coli BL21,E. coli BL21; [1],12.5 µg/mL
same,MIC (μg/mL) P. aeruginosa,Pseudomonas aeruginosa; [2],12.5 µg/mL
same,MIC (μg/mL) K. pneumonia,Klebsiella pneumonia; [3],25 µg/mL
same,MIC (μg/mL) E. cloacae,Enterobacter cloacae; [4],50 µg/mL
same,MIC (μg/mL) A. hydrophila,Aeromonas hydrophila; [5],12.5 µg/mL
same,MIC (μg/mL) C. diversus,Citrobacter diversus; [6],25 µg/mL
same,MIC (μg/mL) M. catarrhalis,Moraxella catarrhalis; [7],50 µg/mL
same,MIC (μg/mL) P. mirabilis,Proteus mirabilis; [8],12.5 µg/mL
same,MIC (μg/mL) P. vulgaris,Proteus vulgaris; [9],25 µg/mL
same,MIC (μg/mL) S. marcescens,Serratia marcescens; [10],50 µg/mL
PRT74 (CDCFPHGSHSRTCDMATGQCACKPGVIGRQCNRCDNPFAEVTTLGCEV; listed as Homo sapiens),MIC,E. coli DH5α,50 mg/L
same,MIC (μg/mL) E. coli BL21,E. coli BL21; [1],12.5 µg/mL
same,MIC (μg/mL) P. aeruginosa,Pseudomonas aeruginosa; [2],25 µg/mL
same,MIC (μg/mL) K. pneumonia,Klebsiella pneumonia; [3],50 µg/mL
same,MIC (μg/mL) E. cloacae,Enterobacter cloacae; [4],25 µg/mL
same,MIC (μg/mL) A. hydrophila,Aeromonas hydrophila; [5],12.5 µg/mL
same,MIC (μg/mL) C. diversus,Citrobacter diversus; [6],12.5 µg/mL
same,MIC (μg/mL) M. catarrhalis,Moraxella catarrhalis; [7],12.5 µg/mL
same,MIC (μg/mL) P. mirabilis,Proteus mirabilis; [8],12.5 µg/mL
same,MIC (μg/mL) P. vulgaris,Proteus vulgaris; [9],12.5 µg/mL
same,MIC (μg/mL) S. marcescens,Serratia marcescens; [10],25 µg/mL

# Reference: patent US9833497B2, “Human originated EGF domain proteins and use of the same” (CHENGDU SOURCEBIO LIMITED-LIABILITY COMPANY, priority 2013, dated 2017)
